Measured values reported in ChEMBL document CHEMBL3997820, “Synthesis and evaluation of anticonvulsant properties of new N-Mannich bases derived from pyrrolidine-2,5-dione and its 3-methyl-, 3-isopropyl, and 3-benzhydryl analogs” (Bioorg Med Chem Lett, 2017).
Activity calls are given as the source filed them. The rule behind the calls is not given here.

Columns and labels:
Mus musculus [1] = assay: Anticonvulsant activity in albino CD1 mouse assessed as protection against maximal electroshock-induced seizures at 300 mg/kg, ip measured after 4 hrs; assay type: functional, organism-based
Mus musculus [2] = assay: Neurotoxicity in albino CD1 mouse assessed as motor impairment at 300 mg/kg, ip measured after 4 hrs by rotarod test; assay type: toxicity, organism-based; conditions: in vivo
Mus musculus [3] = assay: Neurotoxicity in albino CD1 mouse assessed as motor impairment at 300 mg/kg, ip measured after 0.5 hrs by rotarod test; assay type: toxicity, organism-based; conditions: in vivo
Mus musculus [4] = assay: Anticonvulsant activity in albino CD1 mouse assessed as protection against subcutaneous pentylenetetrazole-induced seizures at 300 mg/kg, ip measured after 4 hrs; assay type: functional, organism-based
Mus musculus [5] = assay: Anticonvulsant activity in albino CD1 mouse assessed as protection against subcutaneous pentylenetetrazole-induced seizures at 300 mg/kg, ip measured after 0.5 hrs; assay type: functional, organism-based
Mus musculus [6] = assay: Anticonvulsant activity in albino CD1 mouse assessed as protection against maximal electroshock-induced seizures at 300 mg/kg, ip measured after 0.5 hrs; assay type: functional, organism-based
Mus musculus [7] = assay: Anticonvulsant activity in ip dosed albino CD1 mouse assessed as protection against subcutaneous pentylenetetrazole-induced seizures; assay type: functional
Mus musculus [8] = assay: Anticonvulsant activity in ip dosed albino CD1 mouse assessed as minimum dose required to protect subcutaneous pentylenetetrazole-induced seizures in half and more mouse measured after 4 hrs; assay type: functional
[9] = Neurotoxicity in ip dosed albino CD1 mouse assessed as motor impairment by rotarod test; assay type: toxicity, organism-based; conditions: in vivo
Mus musculus [10] = assay: Protection index, ratio of TD50 for motor impairment in ip dosed albino CD1 mouse to ED50 for protection against subcutaneous pentylenetetrazole-induced seizures in ip dosed albino CD1 mouse
Mus musculus [11] = assay: Anticonvulsant in ip dosed CD1 mouse assessed as time to peak effect; assay type: functional
Mus musculus [12] = assay: Anticonvulsant activity in ip dosed albino CD1 mouse assessed as minimum dose required to protect subcutaneous pentylenetetrazole-induced seizures in half and more mouse measured after 0.5 hrs; assay type: functional
Mus musculus [13] = assay: Anticonvulsant activity in ip dosed albino CD1 mouse assessed as protection against 32 mA current-induced seizure by 6 Hz psychomotor test; assay type: functional
Mus musculus [14] = assay: Anticonvulsant activity in albino CD1 mouse assessed as protection against 32 mA current-induced seizure incidents at 100 mg/kg, ip after 0.5 hrs by 6 Hz psychomotor test; assay type: functional
Mus musculus [15] = assay: Neurotoxicity in ip dosed albino CD1 mouse assessed as minimum dose required to induce motor impairment in half and more mouse measured after 0.5 hrs by rotarod test; assay type: toxicity, organism-based; conditions: in vivo
Mus musculus [16] = assay: Anticonvulsant activity in ip dosed albino CD1 mouse assessed as minimum dose required to protect maximal electroshock-induced seizures in half and more mouse measured after 4 hrs; assay type: functional
Mus musculus [17] = assay: Anticonvulsant activity in ip dosed albino CD1 mouse assessed as minimum dose required to protect maximal electroshock-induced seizures in half and more mouse measured after 0.5 hrs; assay type: functional
Mus musculus [18] = assay: Protection index, ratio of TD50 for motor impairment in ip dosed albino CD1 mouse to ED50 for protection against 32 mA current-induced seizure in ip dosed albino CD1 mouse by 6 Hz psychomotor test
Mus musculus [19] = assay: Anticonvulsant activity in albino CD1 mouse assessed as protection against 32 mA current-induced seizure at 100 mg/kg, ip after 4 hrs by 6 Hz psychomotor test; assay type: functional, organism-based
Mus musculus [20] = assay: Anticonvulsant activity in albino CD1 mouse assessed as protection against 32 mA current-induced seizure at 100 mg/kg, ip after 0.5 hrs by 6 Hz psychomotor test; assay type: functional

SMILES | Activity (Mus musculus [1]) | Activity (Mus musculus [2]) | Activity (Mus musculus [3]) | Activity (Mus musculus [4]) | Activity (Mus musculus [5]) | Activity (Mus musculus [6]) | also measured
CC(C)C1CC(=O)N(CN2CCC(Cc3ccccc3)CC2)C1=O (configuration not stated) | inactive | Non-Toxic | Non-Toxic | inactive | inactive | inactive | –
CN1CCN(CN2C(=O)CCC2=O)CC1 | inactive | Non-Toxic | Non-Toxic | inactive | inactive | inactive | –
CC(C)C1CC(=O)N(CN2CCN(C3CCCCC3)CC2)C1=O (configuration not stated) | inactive | Non-Toxic | Non-Toxic | – | inactive | inactive | ED50 (Mus musculus [7]): 91.8 mg/kg; Activity (Mus musculus [8]): 100 mg/kg; TD50 [9]: < 200 mg/kg; Ratio TD50/ED50 (Mus musculus [10]): <2.17; Time (Mus musculus [11]): 0.5 h
CC1CC(=O)N(CN2CCC(Cc3ccccc3)CC2)C1=O (configuration not stated) | inactive | Non-Toxic | Non-Toxic | inactive | inactive | inactive | –
CC[C@@H](C(N)=O)N1CCCC1=O | – | – | – | – | – | – | TD50 [9]: > 500 mg/kg; Time (Mus musculus [11]): 1 h
O=C1CCC(=O)N1CN1CCOCC1 | inactive | Non-Toxic | Non-Toxic | inactive | inactive | inactive | –
O=C1CC(C(c2ccccc2)c2ccccc2)C(=O)N1CN1CCN(CCO)CC1 (configuration not stated) | – | Non-Toxic | – | – | – | – | Activity (Mus musculus [12]): 100 mg/kg; ED50 (Mus musculus [13]): 51.7 mg/kg; ED50 (Mus musculus [7]): 83.1 mg/kg; Activity (Mus musculus [14]): 66%; Activity (Mus musculus [15]): 300 mg/kg; Activity (Mus musculus [8]): 100 mg/kg; Activity (Mus musculus [16]): 300 mg/kg; Activity (Mus musculus [17]): 300 mg/kg; TD50 [9]: 222 mg/kg; Ratio TD50/ED50 (Mus musculus [10]): 2.67; Ratio TD50/ED50 (Mus musculus [18]): 4.29; Time (Mus musculus [11]): 0.5 h
O=C1CC(C(c2ccccc2)c2ccccc2)C(=O)N1CN1CCN(Cc2ccccc2)CC1 (configuration not stated) | inactive | Non-Toxic | Non-Toxic | – | – | inactive | Activity (Mus musculus [12]): 100 mg/kg; Activity (Mus musculus [8]): 300 mg/kg
CC(C)C1CC(=O)N(CN2CCN(Cc3ccccc3)CC2)C1=O (configuration not stated) | inactive | Non-Toxic | Non-Toxic | inactive | inactive | inactive | –
O=C1CCC(=O)N1CN1CCN(CCO)CC1 | inactive | Non-Toxic | Non-Toxic | inactive | inactive | inactive | –
O=C1CCC(=O)N1CN1CCN(Cc2ccccc2)CC1 | inactive | Non-Toxic | Non-Toxic | inactive | inactive | inactive | –
O=C1CCC(=O)N1CN1CCC(Cc2ccccc2)CC1 | inactive | Non-Toxic | Non-Toxic | inactive | inactive | inactive | –
CC1CC(=O)N(CN2CCN(CCO)CC2)C1=O (configuration not stated) | inactive | Non-Toxic | Non-Toxic | inactive | inactive | inactive | –
O=C1CCC(=O)N1CN1CCN(c2ncccn2)CC1 | inactive | Non-Toxic | Non-Toxic | inactive | inactive | inactive | –
CC1CC(=O)N(CN2CCN(C)CC2)C1=O (configuration not stated) | inactive | Non-Toxic | Non-Toxic | inactive | inactive | inactive | –
CC1CC(=O)N(CN2CCN(Cc3ccccc3)CC2)C1=O (configuration not stated) | inactive | Non-Toxic | Non-Toxic | inactive | inactive | inactive | –

SMILES | Activity (Mus musculus [1]) | Activity (Mus musculus [2]) | Activity (Mus musculus [3]) | Activity (Mus musculus [4]) | Activity (Mus musculus [5]) | Activity (Mus musculus [6]) | also measured
CC(C)C1CC(=O)N(CN2CCN(CCO)CC2)C1=O (configuration not stated) | – | Non-Toxic | Non-Toxic | – | inactive | inactive | Activity (Mus musculus [8]): 300 mg/kg; Activity (Mus musculus [16]): 300 mg/kg
CC1CC(=O)N(CN2CCOCC2)C1=O (configuration not stated) | inactive | Non-Toxic | Non-Toxic | inactive | inactive | inactive | –
CCC1(C)CC(=O)NC1=O (configuration not stated) [ETHOSUXIMIDE] | – | – | – | – | – | – | Time (Mus musculus [11]): 0.25 h
O=C1CC(C(c2ccccc2)c2ccccc2)C(=O)N1CN1CCN(C2CCCCC2)CC1 (configuration not stated) | inactive | Non-Toxic | Non-Toxic | – | – | inactive | Activity (Mus musculus [12]): 300 mg/kg; Activity (Mus musculus [8]): 300 mg/kg
O=C1CC(C(c2ccccc2)c2ccccc2)C(=O)N1CN1CCN(c2ncccn2)CC1 (configuration not stated) | inactive | Non-Toxic | Non-Toxic | inactive | – | inactive | Activity (Mus musculus [12]): 300 mg/kg
CC(C)C1CC(=O)N(CN2CCN(C)CC2)C1=O (configuration not stated) | inactive | Non-Toxic | Non-Toxic | – | – | inactive | Activity (Mus musculus [12]): 100 mg/kg; ED50 (Mus musculus [7]): 74.9 mg/kg; Activity (Mus musculus [19]): inactive; Activity (Mus musculus [20]): inactive; Activity (Mus musculus [8]): 300 mg/kg; TD50 [9]: > 300 mg/kg; Ratio TD50/ED50 (Mus musculus [10]): >4; Time (Mus musculus [11]): 0.5 h
COC[C@@H](NC(C)=O)C(=O)NCc1ccccc1 [LACOSAMIDE] | – | – | – | – | – | – | ED50 (Mus musculus [13]): 5.2 mg/kg; Time (Mus musculus [11]): 0.5 h
CC1CC(=O)N(CN2CCN(c3ncccn3)CC2)C1=O (configuration not stated) | inactive | Non-Toxic | Non-Toxic | inactive | inactive | inactive | –
CN1CCN(CN2C(=O)CC(C(c3ccccc3)c3ccccc3)C2=O)CC1 (configuration not stated) | – | Non-Toxic | – | inactive | – | – | Activity (Mus musculus [12]): 100 mg/kg; ED50 (Mus musculus [13]): 39.2 mg/kg; ED50 (Mus musculus [7]): 75.6 mg/kg; Activity (Mus musculus [19]): Active; Activity (Mus musculus [20]): 100%; Activity (Mus musculus [15]): 300 mg/kg; Activity (Mus musculus [16]): 300 mg/kg; Activity (Mus musculus [17]): 300 mg/kg; TD50 [9]: 247 mg/kg; Ratio TD50/ED50 (Mus musculus [10]): 3.26; Ratio TD50/ED50 (Mus musculus [18]): 6.28; Time (Mus musculus [11]): 0.5 h
O=C1CCC(=O)N1CN1CCN(C2CCCCC2)CC1 | inactive | Non-Toxic | Non-Toxic | inactive | inactive | inactive | –
CCCC(CCC)C(=O)O [VALPROIC ACID] | – | – | – | – | – | – | ED50 (Mus musculus [13]): 131 mg/kg; ED50 (Mus musculus [7]): 240 mg/kg; Time (Mus musculus [11]): 0.5 h
O=C1CC(C(c2ccccc2)c2ccccc2)C(=O)N1CN1CCC(Cc2ccccc2)CC1 (configuration not stated) | inactive | Non-Toxic | Non-Toxic | inactive | inactive | inactive | –
CC(C)C1CC(=O)N(CN2CCN(c3ncccn3)CC2)C1=O (configuration not stated) | inactive | Non-Toxic | Non-Toxic | inactive | inactive | inactive | –
CC(C)C1CC(=O)N(CN2CCOCC2)C1=O (configuration not stated) | inactive | Non-Toxic | Non-Toxic | – | inactive | inactive | Activity (Mus musculus [19]): inactive; Activity (Mus musculus [20]): inactive; Activity (Mus musculus [8]): 300 mg/kg
CC1CC(=O)N(CN2CCN(C3CCCCC3)CC2)C1=O (configuration not stated) | inactive | Non-Toxic | Non-Toxic | inactive | inactive | inactive | –
